Reference: patent US20240368133A1, “Compounds for the Treatment of Pain, in Particular, Neuropathic Pain, and/or Other Diseases or Disorders that are Associated with AT2R and/or AT2R Mediated Signaling” (Confo Therapeutics N.V., priority 2021, published 2024)
Like-named read-outs stand apart in the source and are kept apart here.

Tests used:
[1] = biological target: human AT2R fused to Cb23 (Homo sapiens, UniProt P50052); assay: Radioligand binding assay, displacement of 125I-[Sar1, Ile8]-Angiotensin II, hAT2R Cb23; details: displacement of 125I-[Sar1, Ile8]-Angiotensin II, human AT2R fused to Cb23, HEK-293 cell membrane preparations; read-out: Binding affinity on hAT2R_Cb23 IC50
human AT2R fused to Cb23, sequence (P50052 whole entry, looked up, the tested form may be a part): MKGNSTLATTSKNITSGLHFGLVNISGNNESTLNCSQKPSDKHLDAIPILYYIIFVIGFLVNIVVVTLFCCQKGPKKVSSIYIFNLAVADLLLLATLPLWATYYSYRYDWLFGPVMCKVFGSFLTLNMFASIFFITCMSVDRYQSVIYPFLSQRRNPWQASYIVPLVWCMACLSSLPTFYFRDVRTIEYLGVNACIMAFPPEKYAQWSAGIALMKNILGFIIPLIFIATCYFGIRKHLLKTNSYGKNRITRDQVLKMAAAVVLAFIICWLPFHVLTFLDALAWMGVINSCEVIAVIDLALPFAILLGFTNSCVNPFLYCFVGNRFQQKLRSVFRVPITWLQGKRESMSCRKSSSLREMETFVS
In short: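 Membranes from HEK-293 cells expressing human AT2R fused to Cb23 were incubated with 0.05 nM 125I-[Sar1, Ile8]-Angiotensin II in 100 μL buffer (50 mM Tris, 5 mM MgCl2, 1 mM EDTA, 0.1% BSA, pH 7.4) for one hour at 25° C. Ligands were tested as eight-point dose-response curves in duplicate, with C21 and Angiotensin II as references.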

[2] = biological target: human AT1R (Homo sapiens (Human), UniProt P30556); assay: Counterscreen radioligand binding assay, displacement of 125I-[Sar1, Ile8]-Angiotensin II, hAT1R WT; details: for inhibition at 1 µM / inhibition at 10 µM: 125I-[Sar1, Ile8]-Ang II, semi-quantitative score; for inhibition at 1 µM: compound at 1 μM, read-out: % Displaced radioligand at 1 μM; for inhibition at 10 µM: compound at 10 μM, read-out: % Displaced radioligand at 10 μM
human AT1R, sequence (P30556 whole entry): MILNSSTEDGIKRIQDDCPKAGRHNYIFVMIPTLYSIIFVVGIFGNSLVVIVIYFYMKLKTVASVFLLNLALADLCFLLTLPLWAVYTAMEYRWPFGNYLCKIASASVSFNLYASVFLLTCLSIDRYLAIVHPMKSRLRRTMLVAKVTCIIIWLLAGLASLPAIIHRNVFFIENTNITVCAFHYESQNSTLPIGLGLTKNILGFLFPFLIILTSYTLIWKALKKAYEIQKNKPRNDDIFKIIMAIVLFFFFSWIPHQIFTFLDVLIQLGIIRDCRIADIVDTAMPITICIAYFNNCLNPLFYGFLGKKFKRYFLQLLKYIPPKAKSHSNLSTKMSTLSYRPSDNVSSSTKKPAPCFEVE
In short: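 Compounds displaced 0.05 nM 125I-[Sar1, Ile8]-Ang II from human AT1R in HEK-293 membranes (1 h, 25° C; Tris/MgCl2/EDTA/BSA buffer, pH 7.4). Readout was filtration and scintillation counting, with non-specific binding set by 10 μM [Sar1]-Ang II. Values are % displacement at 1 μM and […], or IC50 from eight-point four-parameter fits.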

[3] = biological target: CYP2C19 (Homo sapiens (Human), UniProt P33261); assay: CYP inhibition, CYP2C19; assay type: in vitro ADME; details: test compound at 10 μM, read-out: % Inhibition (PIN) 2C19
CYP2C19, sequence (P33261 whole entry): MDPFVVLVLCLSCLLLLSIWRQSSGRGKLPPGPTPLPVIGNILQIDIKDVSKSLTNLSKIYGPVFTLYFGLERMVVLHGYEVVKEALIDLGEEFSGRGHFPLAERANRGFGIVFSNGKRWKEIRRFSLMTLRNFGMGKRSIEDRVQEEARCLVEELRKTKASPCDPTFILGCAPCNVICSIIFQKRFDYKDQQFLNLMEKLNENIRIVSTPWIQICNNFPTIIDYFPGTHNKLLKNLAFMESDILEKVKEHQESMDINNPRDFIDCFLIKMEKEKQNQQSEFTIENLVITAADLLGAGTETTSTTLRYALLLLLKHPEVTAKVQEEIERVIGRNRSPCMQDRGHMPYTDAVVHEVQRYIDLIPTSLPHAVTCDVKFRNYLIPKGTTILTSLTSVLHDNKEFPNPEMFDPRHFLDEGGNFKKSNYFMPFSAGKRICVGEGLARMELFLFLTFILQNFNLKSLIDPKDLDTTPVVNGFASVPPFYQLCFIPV
Description: (§1) The aim of this assay is to determine the inhibitory potential of a test compound. A major concern for drug-drug-interaction is cytochrome P450 inhibition. Reversible CYP inhibition was determined in human liver microsomes using specific probe substrates for human cytochrome P450 isoenzymes CYP1A2, 2C9, 2C19, 2D6 and 3A4. […]
(§2) A 10 mM stock solution of test compound is prepared in methanol. This stock is further serially diluted 1:3 in methanol and then added to mixture containing 50 mM potassium phosphate buffer pH7.4, human liver microsomes (BD Gentest) and probe substrate. After pre-warming 5 min at 37° C., the reaction is started by adding co-factor mix ([…] glucose-6-phosphate, 1.7 mg/mL NADP, 6 U/mL of glucose-6-phosphate dehydrogenase), resulting in a final concentration of test compound at 10 μM (2% MeOH).
(§3) Final concentrations of co-factor mix components are as follows: 1.56 mg/mL glucose-6-phosphate, 0.34 mg/mL NADP, 1.2 U/mL of glucose-6-phosphate dehydrogenase.
(§4) After incubation at 37° C., the reaction (aliquot of 50 μL) is terminated with 150 μL CH3CN:MeOH (2:1) solution with internal standard (warfarin for 2C9, diclofenac for all other tested isoforms). Samples are centrifuged and the supernatant fractions analyzed by LC-MS/MS.
(§5) The instrument responses (ratio of test compound and internal standard peak areas) are referenced to those for solvent controls (assumed as 100%) in order to determine the percentage reduction in probe metabolism. Percent of control activity vs. concentration plots are generated and fitted using GraphPad Prism software to generate IC50.

[4] = biological target: CYP2D6 (Homo sapiens (Human), UniProt P10635); assay: CYP inhibition, CYP2D6; assay type: in vitro ADME; details: test compound at 10 μM, read-out: % Inhibition (PIN) 2D6
CYP2D6, sequence (P10635 whole entry): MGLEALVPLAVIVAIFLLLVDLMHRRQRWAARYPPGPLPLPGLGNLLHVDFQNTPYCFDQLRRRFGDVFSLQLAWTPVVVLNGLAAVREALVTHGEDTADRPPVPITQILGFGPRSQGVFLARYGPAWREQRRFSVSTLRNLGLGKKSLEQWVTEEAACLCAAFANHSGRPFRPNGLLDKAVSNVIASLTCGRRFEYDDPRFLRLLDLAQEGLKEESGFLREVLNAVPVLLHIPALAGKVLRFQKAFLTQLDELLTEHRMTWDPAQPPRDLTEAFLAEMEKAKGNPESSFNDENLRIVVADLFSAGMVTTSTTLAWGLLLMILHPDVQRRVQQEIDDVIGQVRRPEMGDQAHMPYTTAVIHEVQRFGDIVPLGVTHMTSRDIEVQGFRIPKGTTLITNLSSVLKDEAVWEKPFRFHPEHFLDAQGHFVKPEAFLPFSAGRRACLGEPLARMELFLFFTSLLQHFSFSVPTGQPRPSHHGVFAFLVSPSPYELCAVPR
Description: as §1, §2, §3, §4, §5

[5] = biological target: CYP3A4 (Homo sapiens (Human), UniProt P08684); assay: CYP inhibition, CYP3A4; assay type: in vitro ADME; details: test compound at 10 μM
CYP3A4, sequence (P08684 whole entry): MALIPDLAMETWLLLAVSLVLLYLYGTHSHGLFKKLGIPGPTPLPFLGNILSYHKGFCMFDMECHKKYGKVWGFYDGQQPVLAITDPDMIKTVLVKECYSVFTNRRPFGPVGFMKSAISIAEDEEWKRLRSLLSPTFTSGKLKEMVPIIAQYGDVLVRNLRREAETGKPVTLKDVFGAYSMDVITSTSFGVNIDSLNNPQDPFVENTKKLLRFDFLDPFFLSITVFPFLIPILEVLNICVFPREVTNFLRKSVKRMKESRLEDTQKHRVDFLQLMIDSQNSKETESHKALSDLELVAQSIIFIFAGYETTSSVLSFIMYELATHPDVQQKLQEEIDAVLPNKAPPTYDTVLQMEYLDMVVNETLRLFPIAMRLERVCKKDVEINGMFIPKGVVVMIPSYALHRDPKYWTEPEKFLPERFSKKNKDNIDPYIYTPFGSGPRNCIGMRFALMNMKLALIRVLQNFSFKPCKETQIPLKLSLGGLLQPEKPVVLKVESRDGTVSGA
Description: The aim of this assay is to determine the inhibitory potential of a test compound. A major concern for drug-drug-interaction is cytochrome P450 inhibition. Reversible CYP inhibition was determined in human liver microsomes using specific probe substrates for human cytochrome P450 isoenzymes CYP1A2, 2C9, 2C19, 2D6 and 3A4.
The potential for CYP450 inhibition was assessed by performing in vitro inhibition studies using fluorogenic CYP450 substrates with the corresponding CYP450 enzymes and NADPH regeneration system (Vivid CYP450 Screening Kits) with some minor changes to the manufacturer's protocols. The fluorescent signal produced from reaction is directly proportional to the cytochrome P450 activity. In the cases when tested compounds interfere with the CYP450 enzyme-substrate reaction, the fluorescent signal decreases. In brief, the tested compounds were first dissolved in DMSO at 100× concentration (1 mM), and diluted in buffer to 2.5× concentration (25 μM). Then the 2.5× compound solutions were mixed with the Master Pre-mix consisting of Human CYP450+Oxidoreductase and NADP+Regeneration System (glucose-6-phosphate and glucose-6-phosphate dehydrogenase). After 10 minutes pre-incubation, the enzymatic reaction was initiated by the addition of a mix of NADPH and the appropriate CYP450 substrates. The plate was incubated for the desired reaction time (25 min for CYP1A2, CYP2C9, CYP2D6, and CYP3A4, 60 min for CYP2C19) after which Stop Reagent was added and fluorescence measured using SpectraMax Paradigm Multi-Mode Microplate Reader. All test points were performed in quadruplicates at concentration 10 μM (1% DMSO).
as §2, §3, §4, §5

[6] = pH 7.4, probe substrate Midazolam (M), human liver microsomes, read-out: % Inhibition (PIN) 3A4
[7] = pH 7.4, probe substrate Testosterone (T), human liver microsomes, read-out: % Inhibition (PIN) 3A4 (T)

CCC1CN(c2cc(CC(C)C)cc(F)c2-c2nn[nH]n2)CCN1Cc1cccnn1 (stereo not drawn) [Compound A-178, 3-[[2-ethyl-4-[3-fluoro-5-isobutyl-2-(2H-tetrazol-5-yl)phenyl]piperazin-1-yl]methyl]pyridazine]
IC50 [1]: 33.5 nM | inhibition at 1 µM [2]: < 30% | inhibition at 10 µM [2]: < 30% | inhibition at 10 µM [3]: 7.77% | inhibition at 10 µM [4]: 25.6% | inhibition at 10 µM ([5]; human, probe not marked, read-out: % Inhibition (PIN) 3A4): 8%

CC(C)Cc1cc(F)c(-c2nn[nH]n2)c(N2CCN(Cc3ccccn3)[C@@H](C)C2)c1 [Compound A-217, (2S)-4-[3-fluoro-5-isobutyl-2-(2H-tetrazol-5-yl)phenyl]-2-methyl-1-(2-pyridylmethyl)piperazine]
IC50 [1]: 2.79 nM | inhibition at 1 µM [2]: < 30% | inhibition at 10 µM [2]: 30 to 50% | IC50 ([2]; HEK-293 cell membranes, read-out: Binding affinity On hAT1R IC50): 17500 nM | inhibition at 10 µM [3]: 39% | inhibition at 10 µM [4]: 68% | inhibition at 10 µM [5, 6]: 73% | inhibition at 10 µM [5, 7]: 25%

Cc1cnc(CN2CCN(c3cc(CC(C)C)cc(F)c3-c3nn[nH]n3)C[C@@H]2C)s1 [Compound A-223, 2-[[(2S)-4-[3-fluoro-5-isobutyl-2-(2H-tetrazol-5-yl)phenyl]-2-methyl-piperazin-1-yl]methyl]-5-methyl-thiazole]
IC50 [1]: 6 nM | inhibition at 1 µM [2]: < 30% | inhibition at 10 µM [2]: < 30% | inhibition at 10 µM [3]: 25% | inhibition at 10 µM [4]: 15% | inhibition at 10 µM [5, 6]: 82% | inhibition at 10 µM [5, 7]: 28%
